This passage reports T/C results from PubChem BioAssay AID248 (DTP/NCI, 2004).

In the test the test system is L1210 leukemia ip in BDF1 mice, survival T/C. In words: NCI In Vivo Anticancer Drug Screen. Data for tumor model L1210 Leukemia (intraperitoneal) in B6D2F1 (BDF1) mice. Particulars: endpoint: mean survival time, higher = longer survival. The method in brief: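 Tumor cells were implanted, animals were treated, and survival was followed. The result divides the treated measurement by the vehicle-control measurement.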

Where [1] appears, read: dose: 100.0 mg/kg/injection, schedule: Q04DX002 (ip), vehicle: Klucel (hydroxypropylcellulose) (HPC).
[2] abbreviates: dose: 200.0 mg/kg/injection, schedule: Q04DX002 (ip), vehicle: Klucel (hydroxypropylcellulose) (HPC).
Setting [3] is: dose: 400.0 mg/kg/injection, schedule: Q04DX002 (ip), vehicle: Klucel (hydroxypropylcellulose) (HPC).
Setting [4] is: dose: 100.0 mg/kg/injection, schedule: Q01DX001 (ip), vehicle: saline.
Where [5] appears, read: dose: 200.0 mg/kg/injection, schedule: Q01DX001 (ip), vehicle: saline.
The mark [6] stands for this setting: dose: 400.0 mg/kg/injection, schedule: Q01DX001 (ip), vehicle: saline.
[7] abbreviates: dose: 100.0 mg/kg/injection, schedule: Q04DX003 (ip), vehicle: saline with Tween-80.
Where [8] appears, read: dose: 200.0 mg/kg/injection, schedule: Q04DX003 (ip), vehicle: saline with Tween-80.
Where [9] appears, read: dose: 400.0 mg/kg/injection, schedule: Q04DX003 (ip), vehicle: saline with Tween-80.
The mark [10] stands for this setting: dose: 100.0 mg/kg/injection, schedule: Q01DX009 (ip), vehicle: Klucel (hydroxypropylcellulose) (HPC).
[11] abbreviates: dose: 100.0 mg/kg/injection, schedule: Q04DX003 (ip), vehicle: Klucel (hydroxypropylcellulose) (HPC).
The mark [12] stands for this setting: dose: 200.0 mg/kg/injection, schedule: Q01DX009 (ip), vehicle: Klucel (hydroxypropylcellulose) (HPC).
Setting [13] is: dose: 200.0 mg/kg/injection, schedule: Q04DX003 (ip), vehicle: Klucel (hydroxypropylcellulose) (HPC).
Where [14] appears, read: dose: 400.0 mg/kg/injection, schedule: Q01DX009 (ip), vehicle: Klucel (hydroxypropylcellulose) (HPC).
Setting [15] is: dose: 400.0 mg/kg/injection, schedule: Q04DX003 (ip), vehicle: Klucel (hydroxypropylcellulose) (HPC).
The mark [16] stands for this setting: dose: 100.0 mg/kg/injection, schedule: Q01DX001 (ip), vehicle: Klucel (hydroxypropylcellulose) (HPC).
Where [17] appears, read: dose: 200.0 mg/kg/injection, schedule: Q01DX001 (ip), vehicle: Klucel (hydroxypropylcellulose) (HPC).
The mark [18] stands for this setting: dose: 400.0 mg/kg/injection, schedule: Q01DX001 (ip), vehicle: Klucel (hydroxypropylcellulose) (HPC).

Values joined by “and” are separate entries in the source; they are usually repeats but may differ in a detail not shown here. Equal values may be shown once. Toxic doses and inconclusive results are not listed.

In the case of `CC(=O)C(=O)C1=C2CCCN2CCc2cc3c(cc21)OCO3`, the T/C runs as follows: under setting [1], 111 % of control; under setting [2], 114 % of control; under setting [3], 118 % of control.
Turning to `CC(C)(C)OC(=O)NCCCCC(NC(=O)OCc1ccccc1)C(=O)O` (stereo not drawn), the T/C is 90 % of control (dose: 25.0 mg/kg/injection, schedule: Q04DX002 (ip), vehicle: saline with Tween-80); 97 % of control (dose: 50.0 mg/kg/injection, schedule: Q04DX002 (ip), vehicle: saline with Tween-80); 89 % of control (dose: 100.0 mg/kg/injection, schedule: Q01DX009 (ip), vehicle: saline with Tween-80); 101 % of control (dose: 100.0 mg/kg/injection, schedule: Q04DX002 (ip), vehicle: saline with Tween-80).
For `O=C(CS)CS`, the T/C (dose: 6.25 mg/kg/injection, schedule: Q01DX009 (ip), vehicle: water) is 102 % of control; the T/C (dose: 12.5 mg/kg/injection, schedule: Q01DX009 (ip), vehicle: water) was 114 % of control; the T/C (dose: 25.0 mg/kg/injection, schedule: Q01DX009 (ip), vehicle: water) is 98 % of control and 105 % of control; the T/C (dose: 25.0 mg/kg/injection, schedule: Q04DX003 (ip), vehicle: water) was 102 % of control; the T/C (dose: 50.0 mg/kg/injection, schedule: Q01DX009 (ip), vehicle: water) is 97 % of control and 103 % of control; the T/C (dose: 50.0 mg/kg/injection, schedule: Q04DX003 (ip), vehicle: water) was 91 % of control. The T/C (dose: 100.0 mg/kg/injection, schedule: Q04DX003 (ip), vehicle: water) was 97 % of control.
For the compound `OCC(O)C(O)C(O)/C=N\O` (stereo not drawn), the T/C is 107 % of control (dose: 100.0 mg/kg/injection, schedule: Q04DX003 (ip), vehicle: saline); 107 % of control (dose: 200.0 mg/kg/injection, schedule: Q04DX003 (ip), vehicle: saline); 100 % of control (dose: 400.0 mg/kg/injection, schedule: Q04DX003 (ip), vehicle: saline).
Consider `CCCCCCCCCCCC(=O)N(C)CC(=O)O`, for which, under setting [4], the T/C was 96 % of control.
Regarding `CNC(=O)Oc1ccccc1C(C)C`, the T/C reads like this: under setting [1], 91 % of control; under setting [2], 94 % of control; under setting [3], 95 % of control and 98 % of control.
In the case of `CCCCCCCCCCCCC1c2ccccc2-c2ccccc21`, the T/C reads like this: under setting [4], 95 % of control; under setting [5], 98 % of control; under setting [6], 107 % of control.
As to `N#CC(C#N)=Cc1cc2c3c(c1)CCCN3CCC2`, the T/C runs as follows: (dose: 50.0 mg/kg/injection, schedule: Q04DX003 (ip), vehicle: saline with Tween-80) 103 % of control; under setting [7], 109 % of control; under setting [8], 92 % of control; under setting [9], 98 % of control.
Regarding `O=NN(CCCl)C(=O)NC1C=CCCC1` (stereo not drawn), the T/C is 117 % of control (dose: 9.0 mg/kg/injection, schedule: Q01DX001 (ip), vehicle: other); 158 % of control (dose: 20.0 mg/kg/injection, schedule: Q01DX001 (ip), vehicle: other); 224 % of control (dose: 37.0 mg/kg/injection, schedule: Q01DX001 (ip), vehicle: other); 175 % of control (dose: 50.0 mg/kg/injection, schedule: Q01DX001 (ip), vehicle: other); 173 % of control (dose: 75.0 mg/kg/injection, schedule: Q01DX001 (ip), vehicle: other); 166 % of control (dose: 112.0 mg/kg/injection, schedule: Q01DX001 (ip), vehicle: other).
Turning to `NNC(=O)CCC(N)C(=O)O` (stereo not drawn), the T/C (dose: 10.77 mg/kg/injection, schedule: Q01DX Z (ip), vehicle: carboxymethylcellulose (CMC)) was 94 % of control; the T/C (dose: 21.53 mg/kg/injection, schedule: Q01DX Z (ip), vehicle: carboxymethylcellulose (CMC)) is 95 % of control; the T/C (dose: 43.05 mg/kg/injection, schedule: Q01DX Z (ip), vehicle: carboxymethylcellulose (CMC)) is 104 % of control; the T/C (dose: 86.1 mg/kg/injection, schedule: Q01DX Z (ip), vehicle: carboxymethylcellulose (CMC)) was 111 % of control and 124 % of control.
Consider `CN1C(=O)C(Br)=C(Br)C1=O`, for which the T/C is, setting by setting: (dose: 5.0 mg/kg/injection, schedule: Q01DX001 (ip), vehicle: saline) 97 % of control; (dose: 10.0 mg/kg/injection, schedule: Q01DX001 (ip), vehicle: saline) 94 % of control.
As for `CCCCC(=O)c1ccc(F)cc1`, the T/C reads like this: under setting [10], 96 % of control; under setting [11], 105 % of control; under setting [12], 98 % of control; under setting [13], 93 % of control; under setting [14], 98 % of control; under setting [15], 100 % of control.
For `CCOP(=S)(N1CC1)N1CC1`, the T/C by setting is: (dose: 100.0 mg/kg/injection, schedule: Q01DX001 (ip), vehicle: carboxymethylcellulose (CMC)) 95 % of control; (dose: 200.0 mg/kg/injection, schedule: Q01DX001 (ip), vehicle: carboxymethylcellulose (CMC)) 95 % of control; (dose: 400.0 mg/kg/injection, schedule: Q01DX001 (ip), vehicle: carboxymethylcellulose (CMC)) 94 % of control.
Consider `COC(=O)c1ccccc1NC(=S)NC(=O)c1ccccc1F`, for which the T/C reads like this: (dose: 25.0 mg/kg/injection, schedule: Q01DX009 (ip), vehicle: saline with Tween-80) 93 % of control; (dose: 50.0 mg/kg/injection, schedule: Q01DX009 (ip), vehicle: saline with Tween-80) 92 % of control; (dose: 200.0 mg/kg/injection, schedule: Q01DX009 (ip), vehicle: saline with Tween-80) 91 % of control.
For `CCCCCCCCOc1ccc(C(c2ccccc2)(c2ccccc2)c2ccccc2)cc1`, the T/C under setting [16] is 90 % of control, the T/C under setting [17] was 89 % of control and the T/C under setting [18] was 89 % of control.
For `COc1ccc(CN2CCCN(Cc3ccc(OC)cc3)C2c2cc(I)cc(I)c2O)cc1`, the T/C was 96 % of control (dose: 100.0 mg/kg/injection, schedule: Q01DX001 (ip), vehicle: acetone); 96 % of control (dose: 200.0 mg/kg/injection, schedule: Q01DX001 (ip), vehicle: acetone); 94 % of control (dose: 400.0 mg/kg/injection, schedule: Q01DX001 (ip), vehicle: acetone).
Turning to `O=C(Nc1ccc(Cl)cc1[N+](=O)[O-])c1ccc2ccccc2c1O`, the T/C is 101 % of control under setting [10], 111 % of control under setting [12] and 103 % of control under setting [14].
On to `CCNC(=O)OCCc1c2ccccc2[n+]([O-])c2ccccc12`, for which the T/C was 96 % of control under setting [7], 102 % of control under setting [8] and 90 % of control under setting [9].
For the compound `CC(=O)c1ccc(CC2CC3CCC2C3)cc1` (stereo not drawn), the T/C reads like this: under setting [16], 112 % of control; under setting [11], 94 % of control; under setting [17], 96 % of control; under setting [13], 89 % of control; under setting [18], 89 % of control; under setting [15], 98 % of control.
As to `Nc1c[nH]c(=O)[nH]c1=O`, the T/C by setting is: under setting [4], 89 % of control; under setting [5], 95 % of control; under setting [6], 97 % of control.
With `O=C(Nc1ccc(C2=NCCS2)cc1)c1ccc(C(=O)Nc2ccc(C3=NCCS3)cc2)cc1`, the T/C is, setting by setting: (dose: 15.0 mg/kg/injection, schedule: Q01DX Z (ip), vehicle: carboxymethylcellulose (CMC)) 98 % of control; (dose: 30.0 mg/kg/injection, schedule: Q01DX Z (ip), vehicle: carboxymethylcellulose (CMC)) 96 % of control; (dose: 60.0 mg/kg/injection, schedule: Q01DX Z (ip), vehicle: carboxymethylcellulose (CMC)) 95 % of control; (dose: 120.0 mg/kg/injection, schedule: Q01DX Z (ip), vehicle: carboxymethylcellulose (CMC)) 96 % of control; (dose: 125.0 mg/kg/injection, schedule: Q01DX Z (ip), vehicle: water) 98 % of control.
